For one assay, the target named is Histamine H1 receptor (Homo sapiens, UniProt P35367). Format: functional, cell-based.
For assay [1], the target named is T1, Glucocorticoid receptor (Homo sapiens, UniProt P04150).
T1 sequence (P04150 whole entry): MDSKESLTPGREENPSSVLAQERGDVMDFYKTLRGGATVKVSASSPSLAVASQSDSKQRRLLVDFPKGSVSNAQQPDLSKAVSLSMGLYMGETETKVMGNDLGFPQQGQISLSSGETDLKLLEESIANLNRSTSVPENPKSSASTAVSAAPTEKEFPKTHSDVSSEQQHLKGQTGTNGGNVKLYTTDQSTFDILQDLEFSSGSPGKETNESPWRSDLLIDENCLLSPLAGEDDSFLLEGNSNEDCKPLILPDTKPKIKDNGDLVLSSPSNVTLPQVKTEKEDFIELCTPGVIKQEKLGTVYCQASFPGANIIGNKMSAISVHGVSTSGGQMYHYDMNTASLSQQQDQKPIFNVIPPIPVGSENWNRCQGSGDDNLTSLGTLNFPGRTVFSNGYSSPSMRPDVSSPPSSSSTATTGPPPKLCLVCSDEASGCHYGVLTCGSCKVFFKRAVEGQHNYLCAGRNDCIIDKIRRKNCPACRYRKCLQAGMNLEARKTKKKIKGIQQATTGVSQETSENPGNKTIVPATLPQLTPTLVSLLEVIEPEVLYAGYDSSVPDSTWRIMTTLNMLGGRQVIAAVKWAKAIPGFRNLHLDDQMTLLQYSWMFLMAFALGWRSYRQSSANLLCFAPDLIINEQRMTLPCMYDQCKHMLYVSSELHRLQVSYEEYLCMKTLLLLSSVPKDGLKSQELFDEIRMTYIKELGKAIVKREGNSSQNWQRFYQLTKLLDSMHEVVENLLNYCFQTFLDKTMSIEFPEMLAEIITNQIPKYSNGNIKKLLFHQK
The assay is classed as functional.

For assay [2], the target named is T1, Glucocorticoid receptor. Format: functional. This is another data set of the same source.
The target in assay [3] is T2, Muscarinic acetylcholine receptor M5 (Homo sapiens, UniProt P08912).
T2 sequence (P08912 whole entry): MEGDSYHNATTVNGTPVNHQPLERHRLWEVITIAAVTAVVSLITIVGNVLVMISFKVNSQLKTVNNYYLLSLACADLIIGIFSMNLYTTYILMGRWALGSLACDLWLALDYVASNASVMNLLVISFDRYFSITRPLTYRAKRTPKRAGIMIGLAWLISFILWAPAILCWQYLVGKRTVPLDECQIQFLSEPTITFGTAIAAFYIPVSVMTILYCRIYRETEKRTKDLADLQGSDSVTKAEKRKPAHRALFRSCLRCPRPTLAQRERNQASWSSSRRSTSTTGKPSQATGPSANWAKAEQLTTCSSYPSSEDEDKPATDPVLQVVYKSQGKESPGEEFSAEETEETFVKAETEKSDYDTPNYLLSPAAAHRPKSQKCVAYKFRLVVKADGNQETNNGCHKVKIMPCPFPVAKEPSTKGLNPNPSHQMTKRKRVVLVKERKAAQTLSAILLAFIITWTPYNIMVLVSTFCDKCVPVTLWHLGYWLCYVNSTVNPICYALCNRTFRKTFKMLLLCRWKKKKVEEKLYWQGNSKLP

Assay [4] concerns the target Gamma-aminobutyric acid type B receptor subunit 1 (Homo sapiens, UniProt Q9UBS5).
Assay [5] has as its target 5-hydroxytryptamine receptor 6 (Homo sapiens, UniProt P50406).
Assay [6] deals with T3, Alpha-1A adrenergic receptor (Homo sapiens, UniProt P35348).
T3 sequence (P35348 whole entry): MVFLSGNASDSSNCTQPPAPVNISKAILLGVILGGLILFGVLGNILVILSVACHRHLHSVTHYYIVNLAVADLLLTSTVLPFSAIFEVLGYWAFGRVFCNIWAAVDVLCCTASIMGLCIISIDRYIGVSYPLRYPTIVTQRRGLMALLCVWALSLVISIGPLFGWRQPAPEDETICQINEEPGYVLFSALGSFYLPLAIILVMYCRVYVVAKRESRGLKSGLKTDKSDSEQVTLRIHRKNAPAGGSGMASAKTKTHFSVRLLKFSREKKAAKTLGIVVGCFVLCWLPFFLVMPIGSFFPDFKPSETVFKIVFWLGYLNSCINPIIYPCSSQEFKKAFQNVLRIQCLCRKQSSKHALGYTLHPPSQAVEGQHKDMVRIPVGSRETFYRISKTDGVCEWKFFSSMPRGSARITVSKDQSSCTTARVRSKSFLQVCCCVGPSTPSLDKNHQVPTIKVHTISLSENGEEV

The next assay concerns the target Estrogen receptor beta (Homo sapiens, UniProt Q92731).
In assay [7] the target is T3, Alpha-1A adrenergic receptor. This is another data set of the same source.
In assay [8] the target is T4, Muscarinic acetylcholine receptor M1 (Homo sapiens, UniProt P11229).
T4 sequence (P11229 whole entry): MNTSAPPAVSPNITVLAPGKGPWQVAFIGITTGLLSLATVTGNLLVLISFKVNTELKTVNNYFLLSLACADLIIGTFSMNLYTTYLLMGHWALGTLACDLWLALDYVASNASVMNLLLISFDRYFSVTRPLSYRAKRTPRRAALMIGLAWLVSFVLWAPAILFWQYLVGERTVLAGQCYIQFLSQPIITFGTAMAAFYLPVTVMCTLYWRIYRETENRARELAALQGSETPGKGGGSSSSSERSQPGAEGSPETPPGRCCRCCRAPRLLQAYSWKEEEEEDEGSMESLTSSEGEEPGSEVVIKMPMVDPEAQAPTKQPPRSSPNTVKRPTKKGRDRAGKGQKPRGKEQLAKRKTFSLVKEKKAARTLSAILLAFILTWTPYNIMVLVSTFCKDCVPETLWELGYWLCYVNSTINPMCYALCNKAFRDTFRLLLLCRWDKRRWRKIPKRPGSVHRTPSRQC

Another assay addresses D(1A) dopamine receptor (Homo sapiens, UniProt P21728).
Further: assay procedure not described here.

Sequence of Gamma-aminobutyric acid type B receptor subunit 1 (Q9UBS5 whole entry): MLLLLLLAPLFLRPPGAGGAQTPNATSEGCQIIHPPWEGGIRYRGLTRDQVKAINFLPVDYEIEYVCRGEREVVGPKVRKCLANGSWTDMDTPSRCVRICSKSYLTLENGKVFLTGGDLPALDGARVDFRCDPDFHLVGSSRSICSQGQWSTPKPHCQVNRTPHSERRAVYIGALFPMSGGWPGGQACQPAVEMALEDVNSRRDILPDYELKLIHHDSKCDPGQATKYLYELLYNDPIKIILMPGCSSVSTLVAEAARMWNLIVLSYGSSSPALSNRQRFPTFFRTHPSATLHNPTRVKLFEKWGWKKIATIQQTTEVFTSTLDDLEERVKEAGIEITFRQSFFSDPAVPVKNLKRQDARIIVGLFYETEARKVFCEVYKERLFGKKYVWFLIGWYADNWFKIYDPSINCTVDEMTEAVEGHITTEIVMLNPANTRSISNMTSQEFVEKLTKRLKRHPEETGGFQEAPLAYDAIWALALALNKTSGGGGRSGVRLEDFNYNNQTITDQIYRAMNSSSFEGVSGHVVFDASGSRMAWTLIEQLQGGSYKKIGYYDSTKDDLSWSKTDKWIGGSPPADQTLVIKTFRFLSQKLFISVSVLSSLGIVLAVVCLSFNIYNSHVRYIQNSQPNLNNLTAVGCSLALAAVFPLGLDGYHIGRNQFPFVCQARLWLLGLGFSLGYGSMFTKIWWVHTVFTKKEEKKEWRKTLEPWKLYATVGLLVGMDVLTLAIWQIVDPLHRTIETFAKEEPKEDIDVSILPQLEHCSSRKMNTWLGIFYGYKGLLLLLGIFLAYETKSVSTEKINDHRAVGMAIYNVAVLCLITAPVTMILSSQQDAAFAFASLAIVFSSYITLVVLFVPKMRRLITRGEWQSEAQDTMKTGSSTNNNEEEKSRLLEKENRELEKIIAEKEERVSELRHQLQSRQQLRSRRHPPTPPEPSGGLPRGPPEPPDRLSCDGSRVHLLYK
Sequence of 5-hydroxytryptamine receptor 6 (P50406 whole entry): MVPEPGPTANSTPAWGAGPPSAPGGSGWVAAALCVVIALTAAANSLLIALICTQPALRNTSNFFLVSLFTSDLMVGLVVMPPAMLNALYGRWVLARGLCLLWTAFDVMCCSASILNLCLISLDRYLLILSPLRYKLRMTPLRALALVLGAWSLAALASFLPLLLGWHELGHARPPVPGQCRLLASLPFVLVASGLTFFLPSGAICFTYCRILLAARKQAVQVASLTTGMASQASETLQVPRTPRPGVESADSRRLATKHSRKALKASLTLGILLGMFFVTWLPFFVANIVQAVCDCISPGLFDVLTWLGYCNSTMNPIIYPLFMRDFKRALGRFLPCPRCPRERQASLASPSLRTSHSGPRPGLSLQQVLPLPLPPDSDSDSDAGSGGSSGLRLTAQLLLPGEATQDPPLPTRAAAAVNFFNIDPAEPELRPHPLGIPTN
Sequence of Estrogen receptor beta (Q92731 whole entry): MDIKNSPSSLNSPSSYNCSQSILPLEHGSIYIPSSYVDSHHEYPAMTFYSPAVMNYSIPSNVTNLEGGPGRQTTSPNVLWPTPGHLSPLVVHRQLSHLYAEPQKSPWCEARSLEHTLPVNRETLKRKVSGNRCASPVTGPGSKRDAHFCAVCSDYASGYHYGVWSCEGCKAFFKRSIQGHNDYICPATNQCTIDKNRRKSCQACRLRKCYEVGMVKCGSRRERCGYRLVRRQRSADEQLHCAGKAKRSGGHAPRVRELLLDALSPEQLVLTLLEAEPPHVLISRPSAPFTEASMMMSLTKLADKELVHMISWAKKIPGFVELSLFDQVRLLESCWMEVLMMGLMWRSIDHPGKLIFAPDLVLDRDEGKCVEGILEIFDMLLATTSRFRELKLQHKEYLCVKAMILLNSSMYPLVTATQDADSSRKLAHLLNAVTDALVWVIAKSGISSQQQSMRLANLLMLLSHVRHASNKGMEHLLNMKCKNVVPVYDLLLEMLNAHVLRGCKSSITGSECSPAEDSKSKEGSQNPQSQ
Sequence of D(1A) dopamine receptor (P21728 whole entry): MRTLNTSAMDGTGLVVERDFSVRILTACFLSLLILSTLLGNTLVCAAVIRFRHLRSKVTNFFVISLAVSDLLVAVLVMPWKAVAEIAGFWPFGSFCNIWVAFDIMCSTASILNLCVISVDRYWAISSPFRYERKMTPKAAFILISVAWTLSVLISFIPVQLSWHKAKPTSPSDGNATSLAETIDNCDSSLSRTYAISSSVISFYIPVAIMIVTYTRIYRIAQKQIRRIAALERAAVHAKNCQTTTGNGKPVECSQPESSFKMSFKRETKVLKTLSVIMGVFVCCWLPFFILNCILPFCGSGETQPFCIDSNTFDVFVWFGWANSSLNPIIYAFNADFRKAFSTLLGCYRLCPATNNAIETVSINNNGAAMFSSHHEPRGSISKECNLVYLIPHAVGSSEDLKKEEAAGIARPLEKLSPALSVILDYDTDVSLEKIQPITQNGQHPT
Sequence of Histamine H1 receptor (P35367 whole entry): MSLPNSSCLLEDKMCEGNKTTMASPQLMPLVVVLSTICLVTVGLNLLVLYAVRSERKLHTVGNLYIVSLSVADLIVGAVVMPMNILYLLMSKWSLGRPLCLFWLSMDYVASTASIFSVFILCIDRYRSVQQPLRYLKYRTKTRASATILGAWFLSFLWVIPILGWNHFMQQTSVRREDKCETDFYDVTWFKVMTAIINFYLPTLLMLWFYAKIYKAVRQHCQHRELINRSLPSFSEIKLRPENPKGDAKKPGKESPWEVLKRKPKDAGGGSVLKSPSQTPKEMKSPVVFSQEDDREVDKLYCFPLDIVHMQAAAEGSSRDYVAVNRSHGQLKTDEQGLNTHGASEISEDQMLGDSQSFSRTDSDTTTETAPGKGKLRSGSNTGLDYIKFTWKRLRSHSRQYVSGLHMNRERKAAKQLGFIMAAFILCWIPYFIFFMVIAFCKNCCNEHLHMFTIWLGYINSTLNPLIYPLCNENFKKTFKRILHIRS

As to `C[C@@H](NCCCc1cccc(C(F)(F)F)c1)c1cccc2ccccc12`, the AC50 on Histamine H1 receptor was more than 30 µM.
For the compound `CCN1CCN(Cc2ccc(Nc3ncc(F)c(-c4cc(F)c5nc(C)n(C(C)C)c5c4)n3)nc2)CC1` [ABEMACICLIB], the concentration at half-maximal activity (AC50) at Glucocorticoid receptor [1] and at Glucocorticoid receptor [2] was more than 30 µM throughout.
Regarding `CCCN(CCC)C(=O)Cc1c(-c2ccc(Cl)cc2)nc2ccc(Cl)cn12` [ALPIDEM], the AC50 in [3], in assay [4], in assay [5] and in assay [6] was more than 10 µM in each case.
`COc1ccccc1Oc1c(NS(=O)(=O)c2ccc(C(C)(C)C)cc2)nc(-c2ncccn2)nc1OCCO` [BOSENTAN]: the AC50 is more than 30 µM at Estrogen receptor beta; more than 10 µM in [4]; more than 30 µM on Histamine H1 receptor; more than 30 µM on Glucocorticoid receptor [1]; more than 30 µM on Glucocorticoid receptor [2].
Consider `COc1cc2nccc(Oc3ccc(NC(=O)C4(C(=O)Nc5ccc(F)cc5)CC4)cc3)c2cc1OC` [CABOZANTINIB], for which the AC50 at Glucocorticoid receptor [1] and at Glucocorticoid receptor [2] was more than 30 µM each time.
With `CC(C(=O)O)c1ccc2c(c1)[nH]c1ccc(Cl)cc12` (stereo not given) [CARPROFEN], the AC50 at Glucocorticoid receptor [1] and at Glucocorticoid receptor [2] was more than 30 µM each time.
For `COc1ccccc1OCCNCC(O)COc1cccc2[nH]c3ccccc3c12` (stereo not given) [CARVEDILOL], the AC50 in [3] was more than 10 µM; on Estrogen receptor beta, more than 30 µM; in [4] it was more than 10 µM; in [5], 1.25 µM; in [6] it was 0.0099 µM.
On to `C[C@@H](Oc1cc(-c2cnn(C3CCNCC3)c2)cnc1N)c1c(Cl)ccc(F)c1Cl` [CRIZOTINIB], for which the AC50 at Glucocorticoid receptor [1] and on Glucocorticoid receptor [2] was more than 30 µM throughout.
For `CC(C)N(CCC(C(N)=O)(c1ccccc1)c1ccccn1)C(C)C` (stereo not given) [DISOPYRAMIDE], the AC50 at Estrogen receptor beta and on Histamine H1 receptor was more than 30 µM in each case.
For `C[C@H]1c2cccc(O)c2C(=O)C2=C(O)[C@]3(O)C(=O)C(C(N)=O)=C(O)[C@@H](N(C)C)[C@@H]3[C@@H](O)[C@@H]21` [DOXYCYCLINE], the AC50 in assay [6] was more than 10 µM.
Turning to `CC(C)(O)CNc1nc(Nc2ccnc(C(F)(F)F)c2)nc(-c2cccc(C(F)(F)F)n2)n1` [ENASIDENIB], the AC50 (in assay [7]; in [8]; on D(1A) dopamine receptor) was more than 30 µM in each case.
On to `CN1C[C@H](C(=O)N[C@]2(C)O[C@@]3(O)[C@@H]4CCCN4C(=O)[C@H](Cc4ccccc4)N3C2=O)C=C2c3cccc4[nH]cc(c34)C[C@H]21` [ERGOTAMINE], for which the AC50 on Glucocorticoid receptor [1] and at Glucocorticoid receptor [2] was more than 30 µM throughout.
Regarding `C#C[C@]1(O)CC[C@H]2[C@@H]3CCC4=CC(=O)CC[C@@H]4[C@H]3C(=C)C[C@@]21CC` [ETONOGESTREL], the AC50 (in [7]; in assay [8]; on D(1A) dopamine receptor) was more than 30 µM each time.
Turning to `O=C(O)CO` [GLYCOLIC ACID], the AC50 (in assay [7]; at D(1A) dopamine receptor) was more than 30 µM throughout.
With `CC(C)Cc1ccc(C(C)C(=O)O)cc1` (stereo not given) [IBUPROFEN], the AC50 in assay [3] is more than 10 µM; at Estrogen receptor beta, more than 30 µM; in assay [4], more than 10 µM; in [5], more than 10 µM; on Glucocorticoid receptor [1], more than 30 µM; on Glucocorticoid receptor [2] it was more than 30 µM. The compound further gave an AC50 in assay [6] of more than 10 µM.
Turning to `CN1C(C(=O)Nc2ccccn2)=C(O)c2ccccc2S1(=O)=O` [PIROXICAM], the AC50 (in [7]; at D(1A) dopamine receptor) was more than 30 µM throughout.
For `C=C[C@H]1C[N@@]2CC[C@H]1C[C@@H]2[C@@H](O)c1ccnc2ccc(OC)cc12` [QUINIDINE], the AC50 at Histamine H1 receptor is more than 30 µM.
As for `CO[C@H]1/C=C/O[C@@]2(C)Oc3c(C)c(O)c4c(O)c(c(/C=N/N5CCN(C)CC5)c(O)c4c3C2=O)NC(=O)/C(C)=C\C=C\[C@H](C)[C@H](O)[C@@H](C)[C@@H](O)[C@@H](C)[C@H](OC(C)=O)[C@@H]1C` [RIFAMPIN], the figures for the AC50 (on Estrogen receptor beta; in assay [5]; in [6]) were more than 30 µM, more than 10 µM and more than 10 µM, respectively.
`CN(C)CCc1c[nH]c2ccc(Cn3cncn3)cc12` [RIZATRIPTAN]: the AC50 was more than 10 µM in assay [3]; more than 30 µM at Estrogen receptor beta; more than 10 µM in assay [4]; more than 30 µM at Histamine H1 receptor; more than 10 µM in [5]; more than 10 µM in assay [6].
On to `CC(C)c1nc(N(C)S(C)(=O)=O)nc(-c2ccc(F)cc2)c1/C=C/[C@@H](O)C[C@@H](O)CC(=O)O` [ROSUVASTATIN], for which the AC50 on Histamine H1 receptor, on Glucocorticoid receptor [1] and on Glucocorticoid receptor [2] was more than 30 µM each time.
In the case of `N[C@@H](CC(=O)N1CCn2c(nnc2C(F)(F)F)C1)Cc1cc(F)c(F)cc1F` [SITAGLIPTIN], the AC50 in assay [3] is more than 10 µM; in assay [4] it was more than 10 µM; in assay [5], more than 10 µM; on Glucocorticoid receptor [1] it was more than 30 µM; at Glucocorticoid receptor [2], more than 30 µM; in [6] it was more than 10 µM.
Consider `OC[C@@H](O)[C@@H](O)[C@H](O)[C@@H](O)CO` [SORBITOL], for which the AC50 (in [7]; on D(1A) dopamine receptor) was more than 30 µM in each case.
In assay [6], `Nc1ccc(S(=O)(=O)Nc2nccs2)cc1` [SULFATHIAZOLE] returned an AC50 of more than 10 µM.
On to `CCN(CC)CCNC(=O)c1c(C)[nH]c(/C=C2\C(=O)Nc3ccc(F)cc32)c1C` [SUNITINIB], for which the values for the AC50 (in assay [5]; at Glucocorticoid receptor [2]) were 2.39 µM and more than 10 µM, respectively.
Take `C=CC[C@@H]1/C=C(\C)C[C@H](C)C[C@H](OC)[C@H]2O[C@@](O)(C(=O)C(=O)N3CCCC[C@H]3C(=O)O[C@H](/C(C)=C/[C@@H]3CC[C@@H](O)[C@H](OC)C3)[C@H](C)[C@@H](O)CC1=O)[C@H](C)C[C@@H]2OC` [TACROLIMUS ANHYDROUS]: the AC50 in assay [3] was more than 10 µM; at Estrogen receptor beta, more than 30 µM; in [4], more than 10 µM; in assay [5] it was more than 10 µM; on Glucocorticoid receptor [1] it was more than 30 µM; at Glucocorticoid receptor [2], more than 30 µM. The compound further came in with an AC50 in assay [6] of more than 10 µM.
For the compound `COc1cc2nc(N3CCN(C(=O)C4CCCO4)CC3)nc(N)c2cc1OC` (stereo not given) [TERAZOSIN], the AC50 on Estrogen receptor beta is more than 30 µM.
On to `Cc1onc(-c2ccccc2)c1-c1ccc(S(N)(=O)=O)cc1` [VALDECOXIB], for which the AC50 in [3] is more than 10 µM; on Estrogen receptor beta, more than 30 µM; in assay [4], more than 10 µM; in assay [5] it was more than 10 µM; in assay [6] it was more than 10 µM.
`CCCC(CCC)C(=O)O` [VALPROIC ACID]: the AC50 in assay [3], in assay [4] and in assay [5] was more than 10 µM throughout.

What is called AC50 is the concentration at which the activity in the assay is half-maximal. Higher therefore signals activity only at high concentration.

Values taken from ChEMBL document CHEMBL5291721, “A preclinical secondary pharmacology resource illuminates target-adverse drug reaction associations of marketed drugs” (Nat Commun, 2023).
